From EPA's ToxValDB 9.5
In brackets after ≈: the same amount, converted by molar mass. Each block holds one compound with its values, some of them ahead of it.

Assays:
Homo sapiens = conditions: clinical; duration: 15 days; inhalation; clinical signs
Tagia sp. = conditions: acute; mortality
Daphnia magna = conditions: chronic/long-term; duration: 21 days; reproduction
Apis mellifera = conditions: acute, mortality
Cyprinus carpio = conditions: acute; duration: 96 hours; mortality
Oryctolagus sp. = conditions: oral
Meleagris sp. = conditions: subchronic, oral, feed, no effects
Folsomia candida = conditions: chronic/long-term; duration: 28 days; mortality
Oncorhynchus mykiss = conditions: for NOEC: chronic/long-term
Hypoaspis aculeifer = conditions: chronic/long-term; duration: 14 days; mortality
Pontoscolex corethrurus = conditions: chronic/long-term; growth
Gallus gallus = conditions: subchronic; duration: 36 days; oral; diet; M; Chicken; no effects
Rattus norvegicus = conditions: oral; for NOAEL: chronic
Leuciscus idus = conditions: chronic/long-term; duration: 66 days; mortality
Pimephales promelas = conditions: chronic/long-term; duration: 36 days; mortality
Anatidae = conditions: short-term; duration: 28 days; oral; feed; no effects
Anser anser = conditions: short-term; duration: 28 days; oral; feed; no effects
Equus caballus = conditions: short-term; duration: 21 days; no effects
Canidae = conditions: chronic; duration: 12 months; Dog Other; histopathology: nonneoplastic

Compound: CC(=O)O [Acetic acid]
NOAEC (Homo sapiens): 10 mg/m3
LC50 (Tagia sp.): > 1000 mg/kg
NOEC (Daphnia magna): 22.7 mg/L
LD50 (Apis mellifera; dermal): > 96 µg/piece
LD50 (Apis mellifera; oral, unspecified): > 110 µg/piece
LC50 (Cyprinus carpio): 43.8 µg/mL (≈ 729 µM)
NOAEL (Oryctolagus sp.; reproduction developmental, mortality): 16 mg/kg-day

Compound: O=C(O)c1ccccc1 [Benzoic acid]
LEL (Meleagris sp.; duration: 42 days, F): 1500 mg/kg
LEL (Sus scrofa; repeat dose other, F, Large White x Landrace, clinical chemistry): 20000 mg/kg-day
LEL (Sus scrofa; repeat dose other, oral, diet, Not specified, histopathology: nonneoplastic): 10000 mg/kg-day
LEL (Sus scrofa; subchronic, duration: 42 days, oral, diet, M/F, Not specified, no effects): 5000 mg/kg-day
LEL (Sus scrofa; subchronic, duration: 84 days, oral, diet, Not specified, organ weight): 20000 mg/kg-day
NOEC (Folsomia candida): 143 mg/kg
LC50 (Oncorhynchus mykiss; acute, duration: 96 hours, mortality): > 9 µg/mL
NOEC (Hypoaspis aculeifer): 1000 mg/kg
NOEC (Pontoscolex corethrurus): 384 mg/kg
LEL (Gallus gallus): 1500 mg/kg-day
LD50 (Rattus norvegicus; acute, mortality): > 1700 mg/kg-day
NOAEL (Rattus norvegicus; duration: 2 years, diet, other): 500 mg/kg-day
NOAEL (Rattus norvegicus; duration: 16 weeks, histopathology: nonneoplastic): 500 mg/kg-day

Compound: CNC(=O)/C(=N/OC)c1ccccc1COc1cc(C)ccc1C [Dimoxystrobin]
NOEC (Leuciscus idus): 15 µg/L
NOEC (Pimephales promelas): 16 µg/L
NOEC (Oncorhynchus mykiss; duration: 28 days, body weight): 10 µg/L
NOEC (Oncorhynchus mykiss; duration: 97 days, biomass): 1 µg/L

LEL (Meleagris sp.; duration: 12 weeks): 25 mg/kg
LEL (Anatidae): 25 mg/kg
LEL (Anser anser): 25 mg/kg
LEL (Equus caballus): 0.25 mg/kg-day
LEL (Oryctolagus sp.; subchronic, duration: 42 days, diet, M/F, no effects): 25 mg/kg-day
Compound: CO[C@@H]1[C@@H](O)[C@H](C)[C@@](O)(CC(=O)[O-])O[C@H]1[C@H](C)[C@H]1O[C@@]2(CC[C@@](C)([C@H]3CC[C@@](C)([C@@H]4O[C@@H]([C@H]5O[C@](C)(O)[C@H](C)C[C@@H]5C)C[C@@H]4O[C@H]4CC[C@H](OC)[C@@H](C)O4)O3)O2)C[C@H](O)[C@H]1C.[Na+] [Semduramicin sodium]
NOAEL (Canidae): 0.3 mg/kg-day
NOAEL (Rattus norvegicus; duration: 2 years, diet, clinical chemistry): 0.125 mg/kg-day
